# How the values were obtained:
# cII = system: cII; set-up: method as in van der Stel et al. 2020; conditions: read-out: Concentration at which 50% inhibition was observed; HepG2 cells ref van der Stel et al. 2020; cited from earlier work
# HepG2 cells = system: HepG2 cells; set-up: method as in van der Stel et al. 2020; conditions: ref van der Stel et al. 2020; cited from earlier work
# cI = system: cI; set-up: method as in van der Stel et al. 2020; conditions: liver and kidney cells ref van der Stel et al. 2020; read-out: IC50 for inhibition of cI; cited from earlier work
# LUHMES cells = experiment: NeuroGlycoTest (metabolic glycoengineering, KE3 assay); type: cell-based, human; conditions: d6 LUHMES, 6 h
# Description: The NeuroGlycoTest was performed as previously described (Kranaster et al. [2020]). In brief, d6 LUHMES cells were co-treated for 6 h with the respiratory chain inhibitors together with 10 µM azide-tagged mannosamine precursor sugar (Ac4ManNAz), synthesized according to published procedures (Saxon et al. [2002]). After PBS-washing, a dibenzylcyclooctyne-PEG4-biotin (DBCO-biotin) [100 μM] (Jena Bioscience, Jena, Germany) solution was added for 20 min at 37 °C to label the incorporated azide-tagged sialic acids (= SiaAz).
# For detection of MGE-sialoproteins, cells in 6-well plates were lyzed in Laemmli buffer and boiled for 5 min at 95 °C. […] Relative band intensity was quantified using a self-developed image evaluation software. […] At least two blots from independent experiments were quantified.
# For detection of neurite MGE, cells in 8-well µ-slides were further incubated with a mixture of streptavidin-Alexa Fluor 488 [8 μg/ml] […] The processed images were analyzed using the SUIKER software (Karreman et al. [2019]) that simultaneously, from the same image, detected and quantified viability (based on the Hoechst staining), neurite area (based on the Calcein staining) and neurite MGE sialic acids (based on the streptavidin-Alexa Fluor 488 label). […]
smiles,measurement,setting,value
Cc1ccccc1C(=O)Nc1cccc(OC(C)C)c1 [Mepronil],IC50,cII,> 100 µM
Cc1ccc(-c2c(Cl)nc(C#N)n2S(=O)(=O)N(C)C)cc1 [Cyazofamid],Mode of action found in HepG2 cells,HepG2 cells,uncoupler
COc1cc(CNC(=O)CCCC/C=C/C(C)C)ccc1O [Capsaicin],IC50,cI,> 200 µM
CCCCCC[C@H]1C(=O)O[C@H](C)[C@H](NC(=O)c2cccc(NC=O)c2O)C(=O)O[C@@H](C)[C@@H]1OC(=O)CC(C)C [Antimycin A],Reduction of neurite area in the NeuroGlycoTest,LUHMES cells; highest non-cytotoxic concentration,more than 25%
same,Neurite MGE signal / proteostasis disturbance (in words),LUHMES cells; highest non-cytotoxic concentration (antimycin A 50 µM),strong decrease
